AUC(0-t) data for eight compounds are collected here from ChEMBL document CHEMBL1153239, “1-(3-Aryloxyaryl)benzimidazole sulfones are liver X receptor agonists” (Bioorg Med Chem Lett, 2010).

A short description of this data set: AUC (0 to last) in C57 mouse at 10 mg/kg, po. Type of data set: ADME, organism-based. Set-up: time 0 - last, dose 10 mg/kg, route oral. The note with it: plasma.
In general, AUC(0-t) refers to exposure summed from dosing to a finite time, without extrapolation to infinity. Lower therefore signals less exposure. For `CCS(=O)(=O)c1cccc(Oc2cccc(-n3c(C)nc4c(Cl)cccc43)c2)c1`, the AUC(0-t) is 1780 ng·h/mL. `Cc1nc2c(C(F)(F)F)cccc2n1-c1cccc(Oc2cccc(S(=O)(=O)C(C)C)c2)c1` displayed an area under the curve AUC(0-t) of 1290 ng·h/mL. The figure for `Cc1nc2c(C(F)(F)F)cccc2n1-c1cccc(Oc2cccc(S(C)(=O)=O)c2)c1` is 12900 ng·h/mL; for `Cc1nc2c(Cl)cccc2n1-c1cccc(Oc2cccc(S(C)(=O)=O)c2)c1` it is 1500 ng·h/mL; for `CS(=O)(=O)c1cccc(Oc2cccc(-n3cnc4c(C(F)(F)F)cccc43)c2)c1` it is 12100 ng·h/mL.

Compound `CCS(=O)(=O)c1cccc(Oc2cccc(-n3c(C)nc4c(C(F)(F)F)cccc43)c2)c1` displayed an AUC(0-t) of 2940 ng·h/mL. Next, `CCc1nc2c(C(F)(F)F)cccc2n1-c1cccc(Oc2cccc(S(C)(=O)=O)c2)c1`: 1780 ng·h/mL.

The compound `CS(=O)(=O)c1cccc(Oc2cccc(-n3c(C(F)(F)F)nc4c(C(F)(F)F)cccc43)c2)c1` registered an area under the curve AUC(0-t) of 14300 ng·h/mL.
